Molecular target: T1, butyric acid olfactory receptor OR51E1 (Homo sapiens, UniProt Q8TCB6)
T1 construct: expressed in transfected cells
T1 sequence (Q8TCB6 1-318): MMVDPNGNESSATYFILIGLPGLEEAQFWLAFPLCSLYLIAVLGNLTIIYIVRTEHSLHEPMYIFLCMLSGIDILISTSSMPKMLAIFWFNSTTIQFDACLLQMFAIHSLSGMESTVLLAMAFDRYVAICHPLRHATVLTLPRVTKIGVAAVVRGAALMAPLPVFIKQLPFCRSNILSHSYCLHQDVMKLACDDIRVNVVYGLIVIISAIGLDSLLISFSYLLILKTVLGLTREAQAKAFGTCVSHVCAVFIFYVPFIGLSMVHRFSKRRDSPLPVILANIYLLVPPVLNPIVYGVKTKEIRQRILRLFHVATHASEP
Assay: Inhibitory dose-response assay in a cell line expressing the OR51E1 olfactory receptor, in the presence of butyric acid (EC87)
Format: cell-based
Conditions: maximum % inhibition of butyric acid (EC87) induced OR51E1 activity, normalized to baseline agonist activity

| Inhibition (%) | SMILES |
| --- | --- |
| 19 | CC(=NO)C1C(C)C(C)[C@@]23CC[C@H](CC12)C3 (some centres unmarked) [~{N}-[1[(1~{S},7~{R})-2,3-dimethyl-4-tricyclo[5.2.1.0^1,5]decanyl]ethylidene]hydroxylamine] |
| 38 | CC1CC(C)(C=NO)C2C[C@H]3CC[C@]12C3 (some centres unmarked) [~{N}-[[(1~{S},7~{R})-2,4-dimethyl-4-tricyclo[5.2.1.0^1,5]decanyl]methylidene]hydroxylamine] |
